Measurements reported in US20110224300A1, “USE OF POTASSIUM 2-(a- HYDROXYPENTYL) BENZOATE IN THE MANUFACTURE OF MEDICAMENTS FOR PREVENTING AND/OR TREATING SENILE [sequence]” (Institute of Mataria Medica, Chinese Academy of Me, priority 2008, published 2011).
Marks after values point to notes of the source that are not given here.

Assays:
[1] = tested on: permanent 2-VO rats (chronic cerebral hypoperfusion); test: Morris water maze in permanent 2-VO (BCCAO) rats; assay type: in vivo, rat; details: for probe trial: time in the platform quadrant and time to cross the platform location / escape latency in the water maze task: 2-VO rats; for probe trial: time in the platform quadrant and time to cross the platform location: compared to 2-VO animals; for escape latency in the water maze task: vs vehicle
Description: Chronic cerebral hypoperfusion was proceeded by a permanent, bilateral occlusion of the common carotid arteries (2-VO) of adult rats. The rats were anesthetized with 10% trichloro-acetaldehyde, and temperature probe was inserted into the rectum, and a separate heating lamp was used to maintain rectal temperature at normothermic level. After a midline neck skin incision, the common carotid artery were exposed and ligated by a 5-0 nylon suture.
Rats were randomly divided into six experimental groups (20 rats/each group): one sham-operated group, one vehicle control group, one piracetam-treated group (600 mg/kg), and three dl-PHPB-treated groups (13, 39, and 129 mg/kg). In 10 days after onset of 2-VO, drugs and vehicle were administered orally to rats for 21 days (one time/each day). The spatial learning and memory capability of rats were detected by Morris water maze in the 25-30 days after operation. The Morris water test was commenced at 40 min after drugs treated. The biochemical and pathology assays were conducted later (in 24 h) after behavioral tests.
Subjects were tested in a Morris water maze. This test is based on a standardized assessment of spatial learning ability. The water maze apparatus consisted of a circular, stainless pool (120 cm in diameter, 60 cm in height). It was placed in a dimly lit, sound-proof test room. Multiple distant cues around the room (window, cabinets, furniture) were kept in the same location throughout the experiments. The water was filled to a depth of 40 cm at 25±1° C. and was made opaque by adding milk powder to prevent visualization of the platform. A transparent platform (10 cm diameter) was put 1.5 cm below the surface of the water. The tank was divided into four quadrants with the platform in a fixed position in one quadrant. The subjects were placed into the maze facing the pool wall and were allowed two trials per day, 60 s per trial, to find the hidden platform. If the subject found the platform within the 60 s, it was given a 10-s rest period on the platform between trials. If the pedestal was not located within the time allotted, the subject was placed on to the platform and allowed 10 s until the next trial. The escape latency (time to reach the platform) was used to assess acquisition of the water maze task. Sessions were repeated for five consecutive days. On the sixth day, the platform was removed and the rat was allowed to search for the platform for 60 s (probe test). The time in the platform quadrant and latency time to cross platform location were recorded to measure the spatial learning ability without the influence of chance encounters with the platform. The Morris water maze sessions were recorded with a video camera for offline analysis.

MDA = MDA level of brain tissues from Aβ(25-35)-induced dementia rats; assay type: in vivo, Male Wistar rats; details: Aβ(25-35) rats, 2 weeks, vehicle 5.43±0.55
Protocol: The biochemical assays were conducted later (in 24 h) after behavioral testing. Eight rats in each group were anesthetized with ether and sacrificed. The brains were quickly removed and cleaned with ice-cold saline. Then the parietal cortex and hippocampus were isolated. For biochemical analysis, the tissues were weighed and homogenized in ice-cold saline with the proportion of 1:9 (w/v). Homogenization (IKA, Germany) was carried out for 2 min in an ice bath. After the homogenates were centrifuged at 2,000×g for 10 min at 4° C. (Sigma, Germany), the supernatant was used for analytical procedures. The levels of choline acetyltransferase (ChAT) SOD, and MDA activities were determined with commercial colorimetric assay kits (Nanjing Jiancheng Bioengineering Institute, China). The content of protein in the supernatant was determined by Bradford method using BSA as standard.
Rats were divided into four experimental groups randomly (10 rats/each group): one sham-operated group, one vehicle control group, and two dl-PHPB-treated groups (39, and 129 mg/kg). At 1 days after operation, drugs and vehicle were administered orally to rats for 14 days (one time/each day). The spatial learning and memory abilities of rats were detected by Morris water maze in the 9-12 days after operation. The testing of Morris water was commenced at 40 min after drugs treated. […]

[2] = dl-PHPB 13 mg/kg, 1st of 5 M/R/T/L column groups (day not printed)
[3] = dl-PHPB 13 mg/kg, 2nd of 5 M/R/T/L column groups (day not printed)
[4] = dl-PHPB 13 mg/kg, 3rd of 5 M/R/T/L column groups (day not printed)
[5] = dl-PHPB 13 mg/kg, 4th of 5 M/R/T/L column groups (day not printed)
[6] = dl-PHPB 13 mg/kg, 5th of 5 M/R/T/L column groups (day not printed)
[7] = dl-PHPB 39 mg/kg, 1st of 5 M/R/T/L column groups (day not printed)
[8] = dl-PHPB 39 mg/kg, 2nd of 5 M/R/T/L column groups (day not printed)
[9] = dl-PHPB 39 mg/kg, 3rd of 5 M/R/T/L column groups (day not printed)
[10] = dl-PHPB 39 mg/kg, 4th of 5 M/R/T/L column groups (day not printed)
[11] = dl-PHPB 39 mg/kg, 5th of 5 M/R/T/L column groups (day not printed)
[12] = dl-PHPB 129 mg/kg, 1st of 5 M/R/T/L column groups (day not printed)
[13] = dl-PHPB 129 mg/kg, 2nd of 5 M/R/T/L column groups (day not printed)
[14] = dl-PHPB 129 mg/kg, 3rd of 5 M/R/T/L column groups (day not printed)
[15] = dl-PHPB 129 mg/kg, 4th of 5 M/R/T/L column groups (day not printed)
[16] = dl-PHPB 129 mg/kg, 5th of 5 M/R/T/L column groups (day not printed)

CCCCC(O)c1ccccc1C(=O)[O-].[K+] (racemic) [dl-PHPB, Potassium 2-(1-Hydroxypentyl)-benzoate]
probe trial: time in the platform quadrant and time to cross the platform location ([1]; 13 mg/kg orally 21 days): markedly showed ameliorative effect
escape latency in the water maze task ([1]; 13 mg/kg orally daily for 21 days): did not differ from the vehicle control animals
probe trial: time in the platform quadrant and time to cross the platform location ([1]; 39 mg/kg orally 21 days): markedly showed ameliorative effect
escape latency in the water maze task ([1]; 39 mg/kg orally daily for 21 days): significantly rescued learning impairment
escape latency in the water maze task ([1]; 129 mg/kg orally daily for 21 days): significantly rescued learning impairment
search strategy times, linear mode (L) [1, 2]: 1
search strategy times, marginal mode (M) [1, 2]: 11
search strategy times, random mode (R) [1, 2]: 13
search strategy times, tendency mode (T) [1, 2]: 11
search strategy times, linear mode (L) [1, 3]: 6
search strategy times, marginal mode (M) [1, 3]: 3
search strategy times, random mode (R) [1, 3]: 11
search strategy times, tendency mode (T) [1, 3]: 16
search strategy times, linear mode (L) [1, 4]: 5
search strategy times, marginal mode (M) [1, 4]: 0
search strategy times, random mode (R) [1, 4]: 10
search strategy times, tendency mode (T) [1, 4]: 21
search strategy times, linear mode (L) [1, 5]: 7
search strategy times, marginal mode (M) [1, 5]: 0
search strategy times, random mode (R) [1, 5]: 9
search strategy times, tendency mode (T) [1, 5]: 20
search strategy times, linear mode (L) [1, 6]: 4
search strategy times, marginal mode (M) [1, 6]: 0
search strategy times, random mode (R) [1, 6]: 5
search strategy times, tendency mode (T) [1, 6]: 26
search strategy times, linear mode (L) [1, 7]: 2
search strategy times, marginal mode (M) [1, 7]: 7
search strategy times, random mode (R) [1, 7]: 15
search strategy times, tendency mode (T) [1, 7]: 12
search strategy times, linear mode (L) [1, 8]: 4
search strategy times, marginal mode (M) [1, 8]: 3
search strategy times, random mode (R) [1, 8]: 9
search strategy times, tendency mode (T) [1, 8]: 18
search strategy times, linear mode (L) [1, 9]: 3
search strategy times, marginal mode (M) [1, 9]: 1
search strategy times, random mode (R) [1, 9]: 13
search strategy times, tendency mode (T) [1, 9]: 17
search strategy times, linear mode (L) [1, 10]: 9
search strategy times, marginal mode (M) [1, 10]: 0
search strategy times, random mode (R) [1, 10]: 7
search strategy times, tendency mode (T) [1, 10]: 18
search strategy times, linear mode (L) [1, 11]: 17*
search strategy times, marginal mode (M) [1, 11]: 0
search strategy times, random mode (R) [1, 11]: 4
search strategy times, tendency mode (T) [1, 11]: 13
search strategy times, linear mode (L) [1, 12]: 4
search strategy times, marginal mode (M) [1, 12]: 4
search strategy times, random mode (R) [1, 12]: 16
search strategy times, tendency mode (T) [1, 12]: 10
search strategy times, linear mode (L) [1, 13]: 1
search strategy times, marginal mode (M) [1, 13]: 2
search strategy times, random mode (R) [1, 13]: 12
search strategy times, tendency mode (T) [1, 13]: 19
search strategy times, linear mode (L) [1, 14]: 6
search strategy times, marginal mode (M) [1, 14]: 0
search strategy times, random mode (R) [1, 14]: 7
search strategy times, tendency mode (T) [1, 14]: 21
search strategy times, linear mode (L) [1, 15]: 7
search strategy times, marginal mode (M) [1, 15]: 1
search strategy times, random mode (R) [1, 15]: 5
search strategy times, tendency mode (T) [1, 15]: 20
search strategy times, linear mode (L) [1, 16]: 9
search strategy times, marginal mode (M) [1, 16]: 0
search strategy times, random mode (R) [1, 16]: 2
search strategy times, tendency mode (T) [1, 16]: 23
cortex MDA level (MDA; 39 mg/kg oral, P<0.05): 3.62±0.21 nmol/mg protein
cortex MDA level (MDA; 129 mg/kg oral, P<0.01): 3.28±0.25 nmol/mg protein
